From US20210330611A1, “THERAPY FOR NEUROLOGICAL DISEASES/DISORDERS” (priority 2020, published 2021)
Structures can show the parent of a compound that is named as a salt. Where two headings read alike, the source gives them in different places. Where a SMILES comes first, the peptide text is derived from it. [ ]: non-standard residue; d: D form. pGlu = O=C1CC[C@@H](C(=O)O)N1; Thz = O=C(O)[C@@H]1CSCN1

How the values were obtained:
[1] = tested on: fibrin-induced microglia activation; assay: Image-based assay of fibrin-induced microglia activation (HTS and dose response); type: cell-based, rat; conditions: primary microglia HTS, fibrin stimulation; for inhibition at 10 µM: Rattus norvegicus, Microglia, read-out: Fibrin % inhibition
primary rat microglia [2] = tested on: primary rat microglia
primary rat microglia [3] = assay: Cell toxicity (dead cells, size <150 μm2) in coated fibrin (cFib) assay; conditions: primary microglia HTS;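 also: share of dead cells sized under 150 µm2 at 10 µM in fibrin-stimulated microglia HTS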
[4] = tested on: fibrin- and LPS-induced microglia activation; assay: cells; type: cell-based, rat
[5] = tested on: LPS-induced microglia activation; assay: Image-based assay of LPS-induced microglia activation (HTS and dose response); type: cell-based, rat; conditions: for inhibition at 10 µM: Rattus norvegicus, Microglia, read-out: LPS % inhibition
[6] = cell size >800 μm2 as marker of activation
[7] = fibrin stimulation, cell size <150 μm2 as marker of toxicity
[8] = classification by fibrin and LPS inhibition in HTS
[9] = fibrin assay, dead cells (size <150 μm2)
[10] = quadrant by fibrin and LPS inhibition, HTS at 10 μM
[11] = primary microglia HTS, LPS stimulation, compounds at 10 μM
[12] = fibrin assay, dead cells (size <150 μm2), compounds at 10 μM
[13] = classification by fibrin and LPS inhibition, HTS at 10 μM

SMILES	LPS % cell toxicity (primary rat microglia [2]; rat)	Fibrin % cell toxicity (primary rat microglia [3]; [7])	Quadrant (FIG. 5b) [4, 8]	Fibrin % cell toxicity (primary rat microglia [3]; [9])	Quadrant (FIG. 5b) [4, 10]	inhibition at 10 µM ([1]; compounds at 10 μM)	inhibition at 10 µM [5, 11]	other results
CC(C)(Sc1cc(C(C)(C)C)c(O)c(C(C)(C)C)c1)Sc1cc(C(C)(C)C)c(O)c(C(C)(C)C)c1 [Probucol]	0%	0%	Q4	–	–	–	–	inhibition at 10 µM [1, 6]: 12%; inhibition at 10 µM ([5]; 48 h): -1%
C[C@H]1C[C@H]2[C@@H]3CCC4=CC(=O)C=C[C@]4(C)[C@@]3(Cl)[C@@H](O)C[C@]2(C)[C@@]1(O)C(=O)CO [Beclomethasone]	–	–	–	1%	Q4	–	–	Fibrin % inhibition ([1]; compounds at 10 μM): −8%; LPS % cell toxicity (primary rat microglia [2]): 0%; LPS % inhibition [5, 11]: −3%
Nc1nc(NC2CC2)c2ncn([C@H]3C=C[C@@H](CO)C3)c2n1 [Abacavir Sulfate]	0%	–	–	1%	Q4	-2%	3%	–
CCC(=O)c1ccc(O)cc1 [Paroxypropione]	0%	1%	Q4	–	–	–	–	inhibition at 10 µM [1, 6]: -11%; inhibition at 10 µM ([5]; 48 h): 17%
O=S(=O)([O-])CCCS(=O)(=O)[O-].[Na+].[Na+] [Eprodisate Disodium]	–	–	–	–	–	–	–	Fibrin % inhibition ([1]; compounds at 10 μM): −3%; LPS % cell toxicity (primary rat microglia [2]): 0%; Fibrin % cell toxicity (primary rat microglia [3]; [12]): 1%; Quadrant (FIG. 5b) [4, 13]: Q4; LPS % inhibition [5, 11]: 12%
CC[C@H](C)C(=O)O[C@H]1C[C@H](O)C=C2C=C[C@H](C)[C@H](CC[C@@H](O)C[C@@H](O)CC(=O)O)[C@H]21 [Pravastatin Sodium]	0%	1%	Q4	–	–	–	–	Fibrin % inhibition [1, 6]: 21%; LPS % inhibition [5]: 11%
CCC(C)(C)c1ccc(CC(C)CN2C[C@@H](C)O[C@@H](C)C2)cc1 (stereo partly drawn) [Amorolfine]	0%	–	–	1%	Q4	6%	22%	–
NS(=O)(=O)c1cc2c(cc1C(F)(F)F)NC(Cc1ccccc1)NS2(=O)=O (stereo not drawn) [Bendrofumethiazide, Bendroflumethiazide]	–	–	–	1%	Q4	–	–	Fibrin % inhibition ([1]; compounds at 10 μM): −15%; LPS % cell toxicity (primary rat microglia [2]): 1%; LPS % inhibition [5, 11]: 12%
CCCCC(CC)COC(=O)CC(C(=O)OCC(CC)CCCC)S(=O)(=O)[O-].[Na+] (stereo not drawn) [Docusate Sodium]	–	–	–	–	–	–	–	Fibrin % inhibition ([1]; compounds at 10 μM): −39%; LPS % cell toxicity (primary rat microglia [2]): 0%; Fibrin % cell toxicity (primary rat microglia [3]; [12]): 0%; Quadrant (FIG. 5b) [4, 13]: Q4; LPS % inhibition [5, 11]: −4%
C#C[C@]1(O)CC[C@H]2[C@@H]3CCc4cc(OC5CCCC5)ccc4[C@H]3CC[C@@]21C [Quinestrol]	0%	0%	Q4	–	–	–	–	inhibition at 10 µM [1, 6]: 15%; inhibition at 10 µM ([5]; 48 h): 24%
Cc1onc(-c2c(Cl)cccc2Cl)c1C(=O)N[C@@H]1C(=O)N2[C@@H]1SC(C)(C)[C@@H]2C(=O)O [Dicloxacillin]	0%	–	–	–	–	-23%	14%	Fibrin % cell toxicity (primary rat microglia [3]; [12]): 0%; Quadrant (FIG. 5b) [4, 13]: Q4
C[C@@H]1C[C@H]2[C@@H]3CCC4=CC(=O)C=C[C@]4(C)[C@@]3(Cl)[C@@H](O)C[C@]2(C)[C@@]1(OC(=O)c1ccco1)C(=O)CCl [Mometasone Furoate]	4%	–	–	3%	Q2	100%	106%	–
C=C(NC(=O)C(=C)NC(=O)c1csc(C2=N[C@@H]3c4csc(n4)[C@H]4NC(=O)c5csc(n5)[C@H]([C@](C)(O)[C@@H](C)O)NC(=O)[C@H]5CSC(=N5)/C(=C/C)NC(=O)[C@H]([C@@H](C)O)NC(=O)c5csc(n5)[C@]3(CC2)NC(=O)[C@H](C)NC(=O)C(=C)NC(=O)[C@H](C)NC(=O)[C@H]([C@@H](C)CC)N[C@@H]2C=Cc3c([C@H](C)O)cc(nc3[C@H]2O)C(=O)O[C@@H]4C)n1)C(N)=O [Thiostrepton]	1%	–	–	64%	Q2	109%	65%	–
CCCCOc1ccc(OCCCN2CCOCC2)cc1 [Pramocaine]	0%	0%	Q4	–	–	–	–	inhibition at 10 µM [1, 6]: 14%; inhibition at 10 µM ([5]; 48 h): 13%
Nc1cc(-c2ccncc2)c[nH]c1=O [Amrinone, Inamrinone]	–	–	–	1%	Q4	–	–	Fibrin % inhibition ([1]; compounds at 10 μM): 1%; LPS % cell toxicity (primary rat microglia [2]): 0%; LPS % inhibition [5, 11]: 18%
CCN(CC)C(=O)c1ccc(O)c(OC)c1 [Etamivan]	0%	–	–	–	–	-16%	16%	Fibrin % cell toxicity (primary rat microglia [3]; [12]): 1%; Quadrant (FIG. 5b) [4, 13]: Q4
CC(C)c1ccc2oc3nc(N)c(C(=O)O)cc3c(=O)c2c1 [Amlexanox]	0%	–	–	0%	Q4	-17%	-4%	–
C=CCNC(N)=S [Allylthiourea]	0%	–	–	1%	Q4	-7%	11%	–
COc1ccc(-c2ccc3cc(C(=O)O)ccc3c2)cc1C12CC3CC(CC(C3)C1)C2 [Adapalene]	4%	–	–	2%	Q4	-12%	45%	–
C[C@]12CC[C@@H]3c4ccc(OS(=O)(=O)O)cc4CC[C@H]3[C@@H]1CCC2=O [Estropipate]	0%	–	–	–	–	10%	10%	Fibrin % cell toxicity (primary rat microglia [3]; [12]): 1%; Quadrant (FIG. 5b) [4, 13]: Q4
C[C@@](Cc1ccc(O)c(O)c1)(NN)C(=O)O [S-(−)-carbidopa, Carbidopa]	–	0%	Q4	–	–	–	–	Fibrin % inhibition [1, 6]: −91%; LPS % cell toxicity (primary rat microglia [2]): 0%; LPS % inhibition [5]: 16%
O=C1CC[C@@H](C(=O)N2CSC[C@H]2C(=O)O)N1 [Pidotimod] ([pGlu]-[Thz]-OH)	0%	1%	Q4	–	–	–	–	inhibition at 10 µM [1, 6]: -10%; inhibition at 10 µM ([5]; 48 h): 14%
OCc1ccccn1 [Piconol]	1%	1%	Q4	–	–	–	–	inhibition at 10 µM [1, 6]: -1%; inhibition at 10 µM ([5]; 48 h): 26%
CCCCCCCCCCCCCCCCCCCCCCO [Docosanol]	0%	–	–	–	–	-10%	-2%	Fibrin % cell toxicity (primary rat microglia [3]; [12]): 0%; Quadrant (FIG. 5b) [4, 13]: Q4
CC1=NN(c2ccccc2)C(=O)C1	–	–	–	1%	Q4	–	–	Fibrin % inhibition ([1]; compounds at 10 μM): −15%; LPS % cell toxicity (primary rat microglia [2]): 0%; LPS % inhibition [5, 11]: 15%
CC(O)(P(=O)(O)O)P(=O)(O)O [Etidronic acid]	0%	–	–	–	–	-16%	18%	Fibrin % cell toxicity (primary rat microglia [3]; [12]): 1%; Quadrant (FIG. 5b) [4, 13]: Q4
CCC1(C)OC(=O)N(C)C1=O (stereo not drawn) [Paramethadione]	0%	0%	Q4	–	–	–	–	inhibition at 10 µM [1, 6]: -15%; inhibition at 10 µM ([5]; 48 h): 3%
